# From US20100010078A1, “METHODS OF TREATING ANDROGEN DEPENDENT PROSTATE CANCER BY ADMINISTERING AN ACTIVE PHARMACEUTICAL INGREDIENT BEING FISETIN, 3,3',4',7-TETRAHYDROXYFLAVONE OR A DERIVATIVE THEREOF, IN AN ORAL, TRANSDERMAL OR TOPICAL DOSAGE FORM” (priority 2008, published 2010)
# Read-outs that look alike come from different tables or passages of the source.
# Assays:
# [1] = tested on: cyclin D1, cyclin D2 and cyclin E; assay: Western blot, cyclins in LNCaP cells; format: cell-based, human; conditions: fisetin 10-60 μM, 48 h
# Experimental: (§1) Protein extraction and western blotting. Following the treatment of LNCaP cells with fisetin (10-60 μM; 48 h), the media was aspirated, the cells were washed with cold PBS (pH 7.4), and ice-cold lysis buffer (50 mM Tris-HCl, 150 mM NaCl, 1 mM EGTA, 1 mM EDTA, 20 mM NaF, 100 mM Na3VO4, 0.5% NP-40, 1% Triton X-100, 1 mM PMSF (pH 7.4)) with freshly added protease inhibitor cocktail (Protease Inhibitor Cocktail Set III, Calbiochem, La Jolla, Calif.) over ice for 30 min. The cells were scraped and the lysate was collected in a microfuge tube and passed through a needle to break up the cell aggregates. […]
# (§2) For western blotting, 30-50 μg protein was resolved over 8-12% polyacrylamide gels and transferred to a nitrocellulose membrane. The blot was blocked in blocking buffer (5% nonfat dry milk/1% Tween 20; in 20 mM TBS, pH 7.6) for 1 hr at room temperature, incubated with appropriate monoclonal or polyclonal primary antibody in blocking buffer for 1.5 h to overnight at 4° C., followed by incubation with anti-mouse or anti-rabbit secondary antibody horseradish peroxidase conjugate obtained from Amersham Life Science Inc. and detected by chemiluminescence and autoradiography using XAR-5 film obtained from Eastman Kodak Co. (Rochester, N.Y., USA). […]
# cytochrome c = assay: Detection of cytochrome c release into cytosol; format: cell-based, human; conditions: LNCaP, fisetin 10-60 μM, 48 h
# Experimental: Detection of cytochrome c release. After the treatment of LNCaP cells with fisetin (10-60 μM; 48 h), the mitochondrial and cytosolic fractions were prepared according to manufacturer's instructions. After the separation of cytosolic and mitochondrial fraction, 40 μg protein was resolved over 12% polyacrylamide gels and immunoblotted with the cytochrome c and Cox-4 antibodies.
# caspase-3, -8 and -9 = assay: Western blot, active caspase-3, -8 and -9 in LNCaP cells; format: cell-based, human; conditions: fisetin 10-60 μM, 48 h
# Experimental: as §1, §2
# [2] = tested on: Bad, Bax, Bcl2 and Bcl-xL; assay: Silencing of Akt by siRNA, Bcl2-family proteins in LNCaP cells; format: cell-based, human; conditions: LNCaP transfected with Akt-siRNA, fisetin 40 μM, 48 h
# Experimental: Silencing of Akt by Small Interfering RNA. LNCaP cells were transfected with Akt-siRNA (75 nmol) and scrambled siRNA (75 nmol) procured from Dharmacon (Lafayette, Colo.) using the Nucleofection Kit R specific for LNCaP transfection from Amaxa Biosystems (Gaithersburg, Md.). Cells were resuspended in a solution from nucleofector kit R following the manufacturer's guidelines. 100 μl of nucleofector solution R was mixed with 2×10^6 cells and siRNA. They were then transferred to the cuvette provided with the kit and were nucleofected with an Amaxa Nucleofector apparatus. Cells were transfected using the T-001 pulsing parameter and were transferred into 100-mm plates containing 37° C. prewarmed culture medium. After transfection, cells were cultured and the medium was replaced with fresh medium. Cells were treated with 40 μM fisetin for 48 h, and protein lysates were prepared. Using 2 μg of GFP we observed 70-80% transfection efficiency with this protocol.
# PrEC cells = assay: MTT cell viability assay, normal prostate epithelial (PrEC) cells; format: cell-based, human; conditions: fisetin 10-60 μM
# Experimental: (§3) obtained from ATCC (Manassas, Va.). LNCaP cells were cultured in Dulbecco's Modified Eagle's medium supplemented with 5% heat-inactivated fetal bovine serum and 1% penicillin/streptomycin (P-S). CWR22Ru1 and PC-3 cells were grown in RPMI 1640 (Invitrogen) supplemented with 10% fetal bovine serum and 1% P-S. Human prostate epithelial cells (PrEC) were obtained from Cambrex Bioscience (Walkersville, Md.) and grown in prostate epithelial basal cell medium (Cambrex Bioscience) according to the manufacturer's instructions. The cells were maintained under standard cell culture conditions at 37° C. and 5% CO2 in a humid environment. Fisetin dissolved in dimethyl sulfoxide (final concentration 0.1% v/v) was used for the treatment of cells. The cells (60-70% confluent) were treated with fisetin (10-60 μM) for 24 and 48 h in complete growth medium.
# Cell viability. The effect of fisetin on the viability of cells was determined by 3-[4,5-dimethylthiazol-2-yl]-2,5-diphenyl tetrazoliumbromide assay. […] The absorbance was recorded on a microplate reader at the wavelength of 540 nm. The effect of fisetin on growth inhibition was assessed as percent cell viability where DMSO-treated cells were taken as 100% viable. […]
# LNCaP cells [3] = assay: DNA cell cycle analysis by flow cytometry; format: cell-based, human; conditions: 48 h
# Experimental: DNA Cell Cycle Analysis. The LNCaP cells (50-60% confluent) were treated with fisetin (10-60 μM; 48 h) in complete medium. The cells were trypsinized thereafter, washed twice with cold PBS and centrifuged. The cell pellet was resuspended in 50 μl cold PBS to which cold methanol (450 μL) was added and the cells were incubated for 1 h at 4° C. The cells were centrifuged at 1,100 rpm for 5 minutes, pellet washed twice with cold PBS, suspended in 500 μl PBS and incubated with 5 μl RNase (20 μg/ml final concentration) for 30 min. The cells were chilled over ice for 10 min and incubated with propidium iodide (50 μg/ml final concentration) for 1 h for analysis by flow cytometry. Flow cytometry was performed with a FACScan (Becton Dickinson). A minimum of 10,000 cells per sample were collected and the DNA histograms were further analyzed by using ModiFitLT software (Verily Software House, Topsham, Me.) for cell cycle analysis.
# cdk2, cdk4 and cdk6 = assay: Western blot, cdks in LNCaP cells; format: cell-based, human; conditions: fisetin 10-60 μM, 48 h
# Experimental: as §1, §2
# LNCaP cells [4] = assay: MTT cell viability assay, LNCaP cells; format: cell-based; conditions: Homo sapiens, read-out: decrease in cell viability; for cytotoxicity at 10 µM: fisetin 10 μM; for cytotoxicity at 20 µM: fisetin 20 μM; for cytotoxicity at 40 µM: fisetin 40 μM; for cytotoxicity at 60 µM: fisetin 60 μM
# Experimental: as §3
# Cell viability. The effect of fisetin on the viability of cells was determined by 3-[4,5-dimethylthiazol-2-yl]-2,5-diphenyl tetrazoliumbromide assay. LNCaP, CWR22Ru1, PC-3 and PrEC cells were plated at 1×10^4 cells per well in 200 μl of complete culture medium containing 10-60 μM concentrations of fisetin in 96-well microtiter plates for 24 and 48 h. After incubation for specified times at 37° C. in a humidified incubator, 3-[4,5-dimethylthiazol-2-yl]-2,5-diphenyl tetrazoliumbromide (5 mg/ml in PBS) was added to each well and incubated for 2 h, after which the plate was centrifuged at 1,800×g for 5 min at 4° C. The absorbance was recorded on a microplate reader at the wavelength of 540 nm. The effect of fisetin on growth inhibition was assessed as percent cell viability where DMSO-treated cells were taken as 100% viable. DMSO at the concentrations used was without any effect on cell viability.
structure (smiles),measurement,setting,value
"O=c1c(O)c(-c2ccc(O)c(O)c2)oc2cc(O)ccc12 [fisetin, 3,3′,4′,7-tetrahydroxyflavone]","protein expression of cyclins D1, D2 and E",[1],dose-dependent decrease
same,levels of cytochrome c in the cytosol,cytochrome c,elevated dose-dependently
same,"activation of caspase-3, -8 and -9","caspase-3, -8 and -9",dose-dependent increase
same,"Bad, Bax, Bcl2 and Bcl-xL protein expression in Akt-siRNA treated cells",[2],augmented the increase in Bad and Bax and decrease in Bcl2 and Bcl-xL
same,effect on cell viability,PrEC cells; 24 h,minimal effect
same,effect on cell viability,PrEC cells; 48 h,minimal effect
same,G1 phase cell cycle distribution,LNCaP cells [3]; fisetin 10 μM,61%
same,G1 phase cell cycle distribution,LNCaP cells [3]; fisetin 20 μM,63%
same,G1 phase cell cycle distribution,LNCaP cells [3]; fisetin 40 μM,67%
same,G1 phase cell cycle distribution,LNCaP cells [3]; fisetin 60 μM,69%
same,"protein expression of cdk2, 4 and 6","cdk2, cdk4 and cdk6",dose-dependent decrease
same,cytotoxicity at 10 µM,LNCaP cells [4]; 24 h,15%
same,cytotoxicity at 10 µM,LNCaP cells [4]; 48 h,19%
same,cytotoxicity at 20 µM,LNCaP cells [4]; 24 h,33%
same,cytotoxicity at 20 µM,LNCaP cells [4]; 48 h,40%
same,cytotoxicity at 40 µM,LNCaP cells [4]; 24 h,45%
same,cytotoxicity at 40 µM,LNCaP cells [4]; 48 h,49%
same,cytotoxicity at 60 µM,LNCaP cells [4]; 24 h,57%
same,cytotoxicity at 60 µM,LNCaP cells [4]; 48 h,62%
